In patent US4345938A, “Herbicidal 2-haloacetanilides” (Monsanto Company, priority 1980, dated 1982):

Legend:
Assay type in all cases: in vivo
[1] = system: Cocklebur; experiment: Pre-emergent herbicidal test, Cocklebur; note: ranges in brackets are in %
Excerpt: (§1) A good grade of top soil is placed in aluminum pans and compacted to a depth of three-eights to one-half inch from the top of the pan. On the top of the soil is placed a number of seeds or vegetative propagules of various plant species. The soil required to level fill the pans after seeding or adding vegetative propagules is weighted into a pan. The soil and a known amount of the active ingredient applied in a solvent or as a wettable powder suspension are thoroughly mixed, and used to cover the prepared pans. After treatment, the pans are moved into a greenhouse bench where they are watered by subirrigation as needed to give adequate moisture for germination and growth.
(§2) Approximately 2 weeks after seeding and treating, the plants were observed and the results recorded. The herbicidal rating was obtained by means of a fixed scale based on the percent injury of each plant species. The ratings are defined as follows: […]

[2] = system: Velvetleaf; experiment: Pre-emergent herbicidal test, Velvetleaf; note: ranges in brackets are in %
Excerpt: as §1, §2

[3] = system: Lambsquarters; experiment: Pre-emergent herbicidal test, Lambsquarters; note: ranges in brackets are in %
Excerpt: as §1, §2

[4] = system: Smartweed; experiment: Pre-emergent herbicidal test, Smartweed; note: ranges in brackets are in %
Excerpt: as §1, §2

[5] = system: Downy Brome; experiment: Pre-emergent herbicidal test, Downy Brome; note: ranges in brackets are in %
Excerpt: as §1, §2

[6] = system: Barnyardgrass; experiment: Pre-emergent herbicidal test, Barnyardgrass; note: ranges in brackets are in %
Excerpt: as §1, §2

[7] = system: Wheat; experiment: Pre-emergent herbicidal test, Wheat; conditions: Table II; note: ranges in brackets are in %
Excerpt: as §1, §2
(§3) The compounds were further tested by utilizing the above procedure on the following plant species: […]

[8] = system: Rice; experiment: Pre-emergent herbicidal test, Rice; conditions: Table II; note: ranges in brackets are in %
Excerpt: as §1, §2, §3

[9] = system: Sorghum; experiment: Pre-emergent herbicidal test, Sorghum; conditions: Table II; note: ranges in brackets are in %
Excerpt: as §1, §2, §3

[10] = system: Wild Buckwheat; experiment: Pre-emergent herbicidal test, Wild Buckwheat; conditions: Table II; note: ranges in brackets are in %
Excerpt: as §1, §2, §3

[11] = system: Hemp Sesbania; experiment: Pre-emergent herbicidal test, Hemp Sesbania; conditions: Table II; note: ranges in brackets are in %
Excerpt: as §1, §2, §3

[12] = system: Panicum Spp.; experiment: Pre-emergent herbicidal test, Panicum Spp.; note: ranges in brackets are in %; conditions: Table II
Excerpt: as §1, §2, §3

[13] = system: Echinochloa crus-galli; experiment: Upland seeded rice greenhouse test, barnyardgrass
Method: In another comparative test in the greenhouse, the compound of Example 2 and Compound B were tested in Upland seeded rice. […] In contrast, Compound A, (a commercial rice herbicide), required 0.14 kg/ha (0.125 lb/A) to selectively control the same weed with rice safety also maintained at 1.12 kg/ha resulting in a selectivity factor of at least 8, i.e., less than one-half that of the compound of Example 2.

[14] = system: Sugarbeets; experiment: Sugarbeet greenhouse test, crop tolerance
Method: (§4) In the discussion of data below, occasional reference is made to herbicide application rates symbolized as "GR15 " and "GR85 "; these rates are given in kilograms per hectare (kg/ha) which are convertible into pounds per acre (lbs/A) by dividing the kg/ha rate by 1.12.
(§5) In further tests in the greenhouse, the compound of Example 2 was tested for its activity against annual weeds in sugarbeets at test rates within the range of 0.07 to 1.12 kg/ha (0.0625 to 1.0 lb/A). The GR15 and GR85 rates for sugarbeets and the various weeds are shown in Table VI; the selectivity factors for the herbicide against the weeds in sugarbeets are shown in parentheses below the weeds; "NS" means non-selective within the test limits. The following abbreviations are used in the table: barnyardgrass (BYG), wild oats (WO), downy brome (DB); redroot pigweed (RRP), blackgrass (BG), large crabgrass (LCG) and yellow foxtail (YFT).

[15] = system: Barnyardgrass; experiment: Sugarbeet greenhouse test, BYG; conditions: in sugarbeets
Excerpt: as §4
(§6) A further guide to the effectiveness of a chemical as a selective herbicide is the "selectivity factor" ("SF") for a herbicide in given crops and weeds. The selectivity factor is a measure of the relative degree of crop safety and weed injury and is expressed in terms of the GR15 /GR85 ratio, i.e., the GR15 rate for the crop divided by the GR85 rate for the weed, both rates in kg/ha (lb/A.)
as §5

[16] = system: Downy Brome; experiment: Sugarbeet greenhouse test, DB; conditions: in sugarbeets
Excerpt: as §4, §6, §5

[17] = system: blackgrass; experiment: Sugarbeet greenhouse test, BG; conditions: in sugarbeets
Excerpt: as §4, §6, §5

[18] = system: yellow foxtail; experiment: Sugarbeet greenhouse test, YFT; conditions: in sugarbeets
Excerpt: as §4, §6, §5

For `CCCCOc1cccc(CC)c1N(CC)C(=O)CCl` [Example 2, N-ethyl-2'-n-butoxy-6'-ethyl-2-chloroacetanilide], the “Rating, Cocklebur” value ([1]; Table I, 5.6 kg/h) was 0 (0-24), the “Rating, Cocklebur” value ([1]; Table I, 11.2 kg/h) was 0 (0-24) and the “Rating, Cocklebur” value ([1]; Table II, 0.01 kg/h) was 0 (0-24). For the same molecule, the “Rating, Cocklebur” value ([1]; Table II, 0.06 kg/h) was 0 (0-24), the “Rating, Cocklebur” value ([1]; Table II, 0.28 kg/h) was 0 (0-24) and the “Rating, Cocklebur” value ([1]; Table II, 1.12 kg/h) was 0 (0-24). For the same molecule, the “Rating, Cocklebur” value ([1]; Table II, 5.6 kg/h) was 1 (25-49), the “Rating, Velvetleaf” value ([2]; Table I, 5.6 kg/h) was 0 (0-24) and the “Rating, Velvetleaf” value ([2]; Table I, 11.2 kg/h) was 1 (25-49). For the same molecule, the “Rating, Velvetleaf” value ([2]; Table II, 0.01 kg/h) was 0 (0-24), the “Rating, Velvetleaf” value ([2]; Table II, 0.06 kg/h) was 0 (0-24) and the “Rating, Velvetleaf” value ([2]; Table II, 0.28 kg/h) was 0 (0-24). The “Rating, Velvetleaf” value ([2]; Table II, 1.12 kg/h) was 0 (0-24), the “Rating, Velvetleaf” value ([2]; Table II, 5.6 kg/h) was 1 (25-49) and the “Rating, Lambsquarters” value ([3]; Table I, 5.6 kg/h) was 3 (75-100). For the same molecule, the “Rating, Lambsquarters” value ([3]; Table I, 11.2 kg/h) was 3 (75-100), the “Rating, Lambsquarters” value ([3]; Table II, 0.01 kg/h) was 0 (0-24) and the “Rating, Lambsquarters” value ([3]; Table II, 0.06 kg/h) was 0 (0-24). The “Rating, Lambsquarters” value ([3]; Table II, 0.28 kg/h) was 0 (0-24), the “Rating, Lambsquarters” value ([3]; Table II, 1.12 kg/h) was 2 (50-74) and the “Rating, Lambsquarters” value ([3]; Table II, 5.6 kg/h) was 3 (75-100). The “Rating, Smartweed” value ([4]; Table I, 5.6 kg/h) was 3 (75-100), the “Rating, Smartweed” value ([4]; Table I, 11.2 kg/h) was 3 (75-100) and the “Rating, Smartweed” value ([4]; Table II, 0.01 kg/h) was 0 (0-24). The “Rating, Smartweed” value ([4]; Table II, 0.06 kg/h) was 0 (0-24), the “Rating, Smartweed” value ([4]; Table II, 0.28 kg/h) was 0 (0-24) and the “Rating, Smartweed” value ([4]; Table II, 1.12 kg/h) was 2 (50-74). The “Rating, Smartweed” value ([4]; Table II, 5.6 kg/h) was 3 (75-100), the “Rating, Downy Brome” value ([5]; Table I, 5.6 kg/h) was 3 (75-100) and the “Rating, Downy Brome” value ([5]; Table I, 11.2 kg/h) was 3 (75-100). The “Rating, Downy Brome” value ([5]; Table II, 0.01 kg/h) was 0 (0-24), the “Rating, Downy Brome” value ([5]; Table II, 0.06 kg/h) was 1 (25-49) and the “Rating, Downy Brome” value ([5]; Table II, 0.28 kg/h) was 3 (75-100). For the same molecule, the “Rating, Downy Brome” value ([5]; Table II, 1.12 kg/h) was 3 (75-100), the “Rating, Downy Brome” value ([5]; Table II, 5.6 kg/h) was 3 (75-100) and the “Rating, Barnyardgrass” value ([6]; Table I, 5.6 kg/h) was 3 (75-100). The “Rating, Barnyardgrass” value ([6]; Table I, 11.2 kg/h) was 3 (75-100), the “Rating, Barnyardgrass” value ([6]; Table II, 0.01 kg/h) was 1 (25-49) and the “Rating, Barnyardgrass” value ([6]; Table II, 0.06 kg/h) was 3 (75-100). The “Rating, Barnyardgrass” value ([6]; Table II, 0.28 kg/h) was 3 (75-100), the “Rating, Barnyardgrass” value ([6]; Table II, 1.12 kg/h) was 3 (75-100) and the “Rating, Barnyardgrass” value ([6]; Table II, 5.6 kg/h) was 3 (75-100). The “Rating, Wheat” value ([7]; 0.01 kg/h) was 0 (0-24), the “Rating, Wheat” value ([7]; 0.06 kg/h) was 0 (0-24) and the “Rating, Wheat” value ([7]; 0.28 kg/h) was 1 (25-49). The “Rating, Wheat” value ([7]; 1.12 kg/h) was 2 (50-74), the “Rating, Wheat” value ([7]; 5.6 kg/h) was 3 (75-100) and the “Rating, Rice” value ([8]; 0.01 kg/h) was 0 (0-24). The “Rating, Rice” value ([8]; 0.06 kg/h) was 0 (0-24), the “Rating, Rice” value ([8]; 0.28 kg/h) was 1 (25-49) and the “Rating, Rice” value ([8]; 1.12 kg/h) was 3 (75-100). The “Rating, Rice” value ([8]; 5.6 kg/h) was 3 (75-100), the “Rating, Sorghum” value ([9]; 0.01 kg/h) was 0 (0-24) and the “Rating, Sorghum” value ([9]; 0.06 kg/h) was 0 (0-24). The “Rating, Sorghum” value ([9]; 0.28 kg/h) was 1 (25-49), the “Rating, Sorghum” value ([9]; 1.12 kg/h) was 3 (75-100) and the “Rating, Sorghum” value ([9]; 5.6 kg/h) was 3 (75-100). For the same molecule, the “Rating, Wild Buckwheat” value ([10]; 0.01 kg/h) was 0 (0-24), the “Rating, Wild Buckwheat” value ([10]; 0.06 kg/h) was 0 (0-24) and the “Rating, Wild Buckwheat” value ([10]; 0.28 kg/h) was 0 (0-24). The “Rating, Wild Buckwheat” value ([10]; 1.12 kg/h) was 1 (25-49), the “Rating, Wild Buckwheat” value ([10]; 5.6 kg/h) was 2 (50-74) and the “Rating, Hemp Sesbania” value ([11]; 0.01 kg/h) was 0 (0-24). For the same molecule, the “Rating, Hemp Sesbania” value ([11]; 0.06 kg/h) was 0 (0-24), the “Rating, Hemp Sesbania” value ([11]; 0.28 kg/h) was 0 (0-24) and the “Rating, Hemp Sesbania” value ([11]; 1.12 kg/h) was 2 (50-74). For the same molecule, the “Rating, Hemp Sesbania” value ([11]; 5.6 kg/h) was 2 (50-74), the “Rating, Panicum Spp.” value ([12]; 0.01 kg/h) was 0 (0-24) and the “Rating, Panicum Spp.” value ([12]; 0.06 kg/h) was 1 (25-49). For the same molecule, the “Rating, Panicum Spp.” value ([12]; 0.28 kg/h) was 3 (75-100), the “Rating, Panicum Spp.” value ([12]; 1.12 kg/h) was 3 (75-100) and the “Rating, Panicum Spp.” value ([12]; 5.6 kg/h) was 3 (75-100). For the same molecule, the “rate for selective control of Echinochloa crus-galli” value ([13]; Upland seeded rice, greenhouse) was 0.064 kg/ha, the “selectivity factor, Echinochloa crus-galli in Upland seeded rice” value ([13]; Upland seeded rice, greenhouse) was “at least 17.5” and the control of barnyardgrass ([13]; upland-seeded rice test, 0.0087 kg/ha (0.0078 lb/A)) was 20%. For the same molecule, the “GR15 Rate, Sugarbeets” value [14] was 0.56 Kg/Ha, the “GR85 Rate, BYG” value [15] was < 0.07 Kg/Ha and the “selectivity factor, BYG” value [15] was > 8.0. The “GR85 Rate, DB” value [16] was 0.14 Kg/Ha, the “selectivity factor, DB” value [16] was 4.0 and the “GR85 Rate, BG” value [17] was 0.21 Kg/Ha. For the same molecule, the “selectivity factor, BG” value [17] was 2.7, the “GR85 Rate, YFT” value [18] was < 0.07 Kg/Ha and the “selectivity factor, YFT” value [18] was > 8.0.
